Source: BindingDB's records for doi:10.1021/jm00048a016 (National Cancer Institute-Frederick, 1994)

Target: Gastrin/cholecystokinin type B receptor (Cavia porcellus)
Test: Tested for the 50% inhibition level against [125I]- gastrin binding to guinea pig gastric glands

EC50 [nM]	SMILES
130	CSCC[C@H](NC(=O)[C@H](Cc1c[nH]c2ccccc12)NC(=O)CCC(=O)N(Cc1ccccc1)N=NCCCl)C(=O)N[C@@H](CC(=O)O)C(=O)N[C@@H](Cc1ccccc1)C(N)=O [CBS-4]
80	CSCC[C@H](NC(=O)[C@H](Cc1c[nH]c2ccccc12)NC(=O)CCNC(=O)CCC(=O)N(Cc1ccccc1)N=NCCCl)C(=O)N[C@@H](CC(=O)O)C(=O)N[C@@H](Cc1ccccc1)C(N)=O [CBS-5]
